Measured values from patent US8324152B2, “Composition for the treatment of atherosclerosis” (Institute National de la Sante et de la Recherche Medicale …, priority 2005, dated 2012).
No end group written: not given here.

Key:
[1] = system: Native or MDA-modified peptides 210 and 240; test: Determination of antibody titers against peptide (serum IgG/IgM ELISA); type: in vivo, mice; settings: Example 1; mouse serum 1:50, 405 nm
Experimental: (§1) Male ApoE −/− mice (B&M, RY, DENMARK, 11 week old) were implanted subcutaneously with mini-osmotic pumps (ALZET1002, DURECT CORPORATION) diffusing PBS or 10 μg of P210, MDA-P210 or P240 per day and for 14 day, at a rate of 0.25 μl/h.
Native or MDA-modified peptides 210 and 240 were used for coating (10 μg/ml of each in PBS pH 7.4) microtiter plates (Nunc MaxiSorp, Nunc, Roskilde, Denmark) in an overnight incubation at 4° C. Coated plates were washed with PBS with 0.05% Tween-20 and thereafter blocked with SuperBlock in Tris-buffered saline (TBS, Pierce) for 5 minutes at room temperature followed by an incubation of mouse serum diluted 1:50 in TBS-0.05% Tween-20 for 2 hours at room temperature and overnight at 4° C. After rinsing, depositions were detected by using biotinylated goat anti-mouse IgM or IgG antibodies (JACKSON IMMUNORESEARCH, West Grove, Pa.) that were incubated for 2 hours at room temperature. The plates were washed and bound biotinylated antibodies were detected by alkaline phosphatase-conjugated streptavidin (SIGMA). The color reaction was developed using phosphatase substrate kit (Pierce). The absorbency at 405 nm was measured after 1 hour of incubation at room temperature. Mean values were calculated after subtraction of background absorbance.

[2] = system: Male ApoE −/− mice; test: Atherosclerotic lesion size (morphometric analysis) in apoE-/- mice after pump delivery of peptide; type: in vivo; settings: Example 2; apoE null mice; result in words
Experimental: as §1
Then, the mice are kept for another 6 weeks and killed at 19 weeks of age.
Total Plasma and HDL cholesterol were measured with a commercially available cholesterol kit (SIGMA) according to the manufacturer's instructions. Morphometric and immuno-histochemical studies were performed in the aortic sinus and in the thoracic aorta (spanning from the brachiocephalic artery to the renal arteries). Collagen fibers were stained with Sirius red. Immuno-histochemical analysis were then performed. The following primary antibodies were used: MOMA-2 (BIOSOURCE INTERNATIONAL) as a specific marker for macrophages; anti-mouse CD3− (SANTA CRUZ); anti-smooth muscle actin, alkaline phosphatase conjugate, clone 1A4 (SIGMA); and anti-IL-10 antibody (SANTA CRUZ). Morphometric analysis was performed with an automated image processor (HISTOLAB, MICROVISION).
Male apoE−/− mice (B&M, RY, DENMARK, 11 week old) were implanted subcutaneously with mini-osmotic pumps (ALZET1002, DURECT CORPORATION) diffusing phosphate buffer saline (PBS) as control or 10 μg per day of P210, MDA-P210 or P240, for 14 days, at a rate of […]. An additional group of mice receiving ovalbumin (OVA) peptide (323-339) served as control.
Then, the mice were kept for another 6 or 10 weeks and killed at 19 or 23 weeks of age.
Male apoE−/− mice (11-week old) were implanted subcutaneously with mini-osmotic pumps (ALZET1002) diffusing phosphate buffer saline (PBS), as control, or 10 μg per day of P210, MDA-P210 or P240, for 14 days at a rate of 0.25 μl/h. An additional group of mice receiving ovalbumin (OVA) peptide (323-339) served as control. Mice were kept for another 6 weeks and killed at 19 weeks of age. […]

[3] = system: CD4+ cells; test: Cell proliferation assay: CD4+ cells with CD11c+ dendritic cells from treated mice, [3H]-thymidine; type: cell-based; settings: Example 1; anti-CD3 3 μg/ml, 72 hours; PBS control 20 000 cpm
Description: T cells were purified from spleen or from draining lymph nodes by negative selection with anti-CD11b (M1/70), anti B220, anti-CD8 and anti-NK cells (DX5) followed by depletion with a mixture of magnetic beads coated with anti-rat Ig (DYNAL). CD11c+ dendritic cells were purified by positive selection with anti-CD11c using directly conjugated anti-CD11c beads (clone N418; MILTENYI BIOTEC).
For the cell proliferation assay, purified CD4+ cells (50 000) were mixed with CD11c+ cells (10 000) and anti-CD3 antibodies (3 μg/ml) for 72 hours. [3H]-Thymidine (1 μCi; PERKIN ELMER) was added for the last 18 hours of cell culture.

Row | Substance | IgG against MDA-P210 [1] | IgG against MDA-P240 [1] | IgG against P210 [1] | IgM against MDA-P210 [1] | IgM against MDA-P240 [1] | IgM against P210 [1] | Effect of continuous administration on atherosclerotic plaques, associated inflammation and plaque composition [2] | Proliferation of CD4+ cells from control mice in the presence of CD11c+ cells from treated mice [3]
1 | FPDLGQEVALNANTKNQKIR (peptide derived from apolipoprotein B) [P240, Human apoB-100 derived peptide, amino acids 3586 to 3605] | 0.62±0.11 absorbance units | 0.037±0.007 absorbance units | 0.47±0.09 absorbance units | 0.79±0.45 absorbance units | 1.34±0.52 absorbance units | 0.79±0.45 absorbance units |  | 
2 | ISQAVHAAHAEINEAGR (peptide derived from ovalbumin) [Control: chicken ovalbumin (OVA) peptide, amino acids 323 to 339, reference compound] |  |  |  |  |  |  | No significant modification | 
3 | KTTKQSFDLSVKAQYKKNKH (peptide derived from apolipoprotein B) [P210, Human apoB-100 derived peptide, amino acids 3136 to 3155] | 1.45±0.49 absorbance units | 0.080±0.038 absorbance units | 0.81±0.22 absorbance units | 1.38±0.04 absorbance units | 1.80±0.41 absorbance units | 1.17±0.22 absorbance units | diminution of the atherosclerotic plaques and of associated inflammation | 
4 | MDA-P210: Malondialdehyde (MDA)-modified human apoB-100 derived peptide; native P210 modified by 0.5 mol/L MDA for 3 hours at 37° C. (KTTKQSFDLSVKAQYKKNKH; not fully specified) | 0.83±0.28 absorbance units | 0.041±0.007 absorbance units | 0.51±0.07 absorbance units | 1.30±0.13 absorbance units | 1.24±0.40 absorbance units | 0.55±0.25 absorbance units | diminution of the atherosclerotic plaques and of associated inflammation | 9500 cpm
